Molecules are shown by their SMILES. The source made the active and inactive calls. No cut-off for these calls is given here.

Data set [1] can be described thus: Antioxidant activity assessed as DPPH radical scavenging activity at […]. Type of data set: physicochemical.
A short description of data set [2]: Antioxidant activity assessed as DPPH radical scavenging activity at 20 µg/ml. The format is physicochemical. (The DPPH test is a chemical assay of radical scavenging.)
Data set [3] in a line: Antioxidant activity assessed as DPPH radical scavenging activity at 20 mg/ml. The format is physicochemical.
The subject of data set [4] is Rattus norvegicus. Kind of data set: Hypoglycemic effect in Wistar rat model of streptozotocin-induced type-2 diabetes mellitus assessed as reduction in blood glucose level at 5 mg/kg, ig after 7 hrs. Type of data set: functional, organism-based.
A short description of data set [5]: Antioxidant activity assessed as AAPH radical scavenging activity by measuring Trolox equivalents after 90 mins by fluorescein probe based ORAC assay. Type of data set: physicochemical. The conditions noted are these: 1.5 h.
The nature of data set [6]: Antioxidant activity assessed as DPPH radical scavenging activity. Type of data set: physicochemical.
In data set [7] the test system is Rattus norvegicus. Kind of data set: Hypoglycemic effect in Wistar rat model of streptozotocin-induced type-2 diabetes mellitus assessed as reduction in blood glucose level at 50 mg/kg, ig after 7 hrs. The format is functional. The conditions noted are these: po.

Turning to `COc1cc(C=O)ccc1O` [VANILLIN], the entries for the “inhibition (INH)” value in data set [1] and in data set [2] were 75% and 7%, respectively.

As to `Cc1c(C(=O)O)nn(-c2ccc(Cl)cc2Cl)c1-c1ccc(Cl)cc1`, the “inhibition (INH)” value in data set [3] is recorded as 17%.

Consider `COc1ccc(Cl)cc1C(=O)NCCc1ccc(S(=O)(=O)NC(=O)NC2CCCCC2)cc1`, for which, in the data set with Rattus norvegicus [4], the result was Active.

The EC50 is the concentration giving half of the maximal effect. On to `COc1cc(C(=O)O)ccc1O` [VANILLIC ACID], for which the Activity in data set [5] turned out to be 2979 g⁻¹. The EC50 in data set [6] stood at 65.8 mM.

As a reminder, the inhibition in vivo is how much of the control response was suppressed. In the case of `COc1cc(/C=N/NC(=O)c2nn(-c3ccc(Cl)cc3Cl)c(-c3ccc(Cl)cc3)c2C)ccc1O`, the inhibition in vivo at 50 mg/kg with Rattus norvegicus [7] came to 64.9%. Moreover, the Activity in data set [5] amounted to 634 g⁻¹. Also, the EC50 in data set [6] was 3.55 mM.

Turning to `COc1cc(/C=N/NC(=O)c2nn(-c3ccc(F)c(Cl)c3)c(-c3ccc(Cl)cc3)c2C)ccc1O`, the Activity in data set [5] came to 882 g⁻¹. Further, the EC50 in data set [6] was 3.56 mM.

As for `O=C1O[C@H]([C@@H](O)CO)C(O)=C1O` [ASCORBIC ACID], the EC50 in data set [6] is 2.07 mM.

Turning to `COc1cc(/C=N/NC(=O)c2nn(-c3ccccc3)c(-c3ccccc3)c2C)ccc1O`, the Activity in data set [5] was found to be 611 g⁻¹. For the same compound, the EC50 in data set [6] turned out to be 2.46 mM.

For `COc1cc(/C=N/NC(=O)c2nn(-c3ccc(F)c(Cl)c3)c(-c3ccc(F)cc3)c2C)ccc1O`, in data set [5], the Activity was found to be 525 g⁻¹. For the same compound, the EC50 in data set [6] came out at 6.92 mM.

Take `COc1cc(/C=N/NC(=O)c2nn(-c3ccc(Cl)cc3Cl)c(-c3ccccc3)c2C)ccc1O`: the inhibition in vivo at 50 mg/kg with Rattus norvegicus [7] came to 26.6%. Besides, in data set [5], the Activity was 1076 g⁻¹. Moreover, the EC50 in data set [6] is 2.99 mM.

In the case of `COc1cc(/C=N/NC(=O)c2nn(-c3ccc(Cl)cc3Cl)c(-c3ccc(C(F)(F)F)cc3)c2C)ccc1O`, the inhibition in vivo at 50 mg/kg with Rattus norvegicus [7] is 35.3%. Besides, the Activity in data set [5] is 401 g⁻¹. In data set [6], the EC50 was 4.24 mM.

`COc1cc(/C=N/NC(=O)c2nn(-c3ccc(Cl)c(Cl)c3)c(-c3ccc(Cl)cc3)c2C)ccc1O`: in the data set on Rattus norvegicus [7], the inhibition in vivo at 50 mg/kg worked out at 33.3%. Moreover, the Activity in data set [5] worked out at 432 g⁻¹. Moreover, the EC50 in data set [6] is 2.6 mM.

For `COc1cc(/C=N/NC(=O)c2nn(-c3ccnc4cc(Cl)ccc34)c(-c3ccc(F)cc3)c2C)ccc1O`, the EC50 in data set [6] is 6.45 mM.

`COc1cc(/C=N/NC(=O)c2nn(-c3ccc(F)cc3F)c(-c3ccc(C(F)(F)F)cc3)c2C)ccc1O`: the Activity in data set [5] worked out at 993 g⁻¹. Besides, the EC50 in data set [6] was found to be 2.9 mM.

Consider `COc1cc(/C=N/NC(=O)c2nn(-c3ccc(F)cc3F)c(-c3ccc(F)cc3)c2C)ccc1O`, for which the Activity in data set [5] is 891 g⁻¹. Also, in data set [6], the EC50 amounted to 3.54 mM.

`COc1cc(/C=N/NC(=O)c2nn(-c3ccc(C(F)(F)F)cc3)c(-c3ccc(Cl)cc3)c2C)ccc1O`: the Activity in data set [5] came out at 867 g⁻¹. Moreover, the EC50 in data set [6] stood at 2.34 mM.

Turning to `COc1cc(/C=N/NC(=O)c2nn(-c3ccc(C(F)(F)F)cc3)c(-c3ccc(Br)cc3)c2C)ccc1O`, the EC50 in data set [6] stood at 2.91 mM.

With `COc1cc(/C=N/NC(=O)c2nn(-c3ccnc4cc(Cl)ccc34)c(-c3ccc(Cl)cc3)c2C)ccc1O`, in data set [6], the EC50 turned out to be 4.59 mM.

For the origin of these results see ChEMBL document CHEMBL3588847, “1,5-Diarylpyrazole and vanillin hybrids: Synthesis, biological activity and DFT studies” (Eur J Med Chem, 2015).
